Source: the supplement of paper PMC10307832

Key:
Test in all cases: relative viability (nuclei count vs DMSO), 5 days (fraction); higher = more cells survive
[1] = compound: CC1=CC=C(C=C1)C(=O)CN2C3=C(CCCC3)SC2=N [Pifithrin_alpha] + Cc1nc(Nc2ncc(C(=O)Nc3c(C)cccc3Cl)s2)cc(N2CCN(CCO)CC2)n1 [Dasatinib] (partner 0.075 µM)
Method in brief: (§1)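 Dosing by pin tool came one day after lung cancer cell lines were seeded in 1536-well plates, using either one drug or a fixed anchor-drug dose plus five library-drug doses (not always all listed) in √10 steps. After 5 days, nuclei were counted on 4× images. Relative viability is treated-well nuclei count divided by vehicle-well nuclei count, and values are medians of duplicate plates.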

Axitinib + Palbociclib = compound: CNC(=O)c1ccccc1Sc1ccc2c(/C=C/c3ccccn3)n[nH]c2c1 [Axitinib] + CC(=O)c1c(C)c2cnc(Nc3ccc(N4CCNCC4)cn3)nc2n(C2CCCC2)c1=O [Palbociclib] (partner 0.5 µM)
Method in brief: as §1

Axitinib + Navitoclax = compound: CNC(=O)c1ccccc1Sc1ccc2c(/C=C/c3ccccn3)n[nH]c2c1 [Axitinib] + CC1(C)CCC(c2ccc(Cl)cc2)=C(CN2CCN(c3ccc(C(=O)NS(=O)(=O)c4ccc(N[C@H](CCN5CCOCC5)CSc5ccccc5)c(S(=O)(=O)C(F)(F)F)c4)cc3)CC2)C1 [Navitoclax] (partner 0.5 µM)
Method in brief: as §1

Bemcentinib + AZD7762 = compound: Nc1nc(Nc2ccc3c(c2)CC[C@@H](N2CCCC2)CC3)nn1-c1cc2c(nn1)-c1ccccc1CCC2 [Bemcentinib] + NC(=O)Nc1cc(-c2cccc(F)c2)sc1C(=O)N[C@H]1CCCNC1 [AZD7762] (partner 0.2 µM)
Method in brief: as §1

Cell Line	relative viability ([1]; first compound 1 µM)	relative viability ([1]; first compound 3.162 µM)	relative viability ([1]; first compound 10 µM)	relative viability ([1]; first compound 100 µM)	relative viability (Axitinib + Palbociclib; first compound 0.005 µM)	relative viability (Axitinib + Palbociclib; first compound 0.01581 µM)	relative viability (Axitinib + Palbociclib; first compound 0.05 µM)	relative viability (Axitinib + Palbociclib; first compound 0.1581 µM)	relative viability (Axitinib + Palbociclib; first compound 0.5 µM)	relative viability (Axitinib + Navitoclax; first compound 0.005 µM)	relative viability (Axitinib + Navitoclax; first compound 0.01581 µM)	relative viability (Axitinib + Navitoclax; first compound 0.05 µM)	relative viability (Axitinib + Navitoclax; first compound 0.1581 µM)	relative viability (Axitinib + Navitoclax; first compound 0.5 µM)	relative viability (Bemcentinib + AZD7762; first compound 0.04 µM)	relative viability (Bemcentinib + AZD7762; first compound 0.1265 µM)	relative viability (Bemcentinib + AZD7762; first compound 0.4 µM)	relative viability (Bemcentinib + AZD7762; first compound 1.265 µM)	relative viability (Bemcentinib + AZD7762; first compound 4 µM)	relative viability ([1]; first compound 31.62 µM)
HCC-366	0.501	0.506	0.426	0.537	0.438	0.378	0.399	0.36	0.524	1.07	1.03	1.01	1.06	1.15	0.253	0.382	0.248	0.163	0.208	–
HCC-827	0.336	0.333	0.351	0.363	0.511	0.501	0.475	0.491	0.546	0.971	0.959	0.998	1.02	1	0.19	0.163	0.186	0.198	0.161	0.429
IA-LM	–	–	–	–	–	–	–	–	–	0.88	0.79	0.944	0.823	0.829	–	–	–	–	–	–
LCLC-103H	0.518	0.474	0.498	0.425	0.475	0.464	0.493	0.474	0.451	–	–	–	–	–	0.764	0.818	0.851	0.81	0.852	0.43
NCI-H358	0.165	0.169	0.187	0.16	0.17	0.159	0.143	0.129	0.13	–	–	–	–	–	0.527	0.516	0.562	0.411	0.602	0.181
NCI-H520	0.299	0.204	0.18	0.263	0.242	0.19	0.205	0.194	0.187	0.987	1.26	1.1	0.794	1.11	–	–	–	–	–	0.243
NCI-H522	0.972	0.887	0.779	0.816	0.892	0.966	1.01	1.05	0.915	–	–	–	–	–	0.872	0.766	0.771	0.949	0.849	0.757
NCI-H596	0.54	0.588	0.583	0.503	–	–	–	–	–	0.979	0.859	1.04	0.847	0.969	1.09	1.13	1.2	0.941	1.12	0.494
NCI-H661	0.967	0.842	0.801	0.76	0.412	0.392	0.424	0.405	0.428	–	–	–	–	–	–	–	–	–	–	0.62
NCI-H1299	–	–	–	–	–	–	–	–	–	1.14	1.04	1.07	1.04	1.07	–	–	–	–	–	–
NCI-H1563	0.406	0.478	0.369	0.44	–	–	–	–	–	–	–	–	–	–	–	–	–	–	–	0.442
NCI-H1623	0.463	0.603	0.523	0.448	–	–	–	–	–	–	–	–	–	–	–	–	–	–	–	0.56
NCI-H1648	–	–	–	–	0.215	0.291	0.219	0.273	0.235	–	–	–	–	–	0.579	0.613	0.709	0.572	0.638	–
